Source: patent US8871753B2, “Macrocyclic compounds and their use as kinase inhibitors” (Incyte Corporation, priority 2008, dated 2014)
Structures can show the parent of a compound that is named as a salt. Where two headings read alike, the source gives them in different places. Values belong to the compound of their own block, whether it stands above or below them.

Columns and labels:
Type in all cases: biochemical
[1] = biological target: T1, human JAK1 (a.a. 837-1142) (Homo sapiens, UniProt P23458); assay: In vitro JAK kinase assay (HTRF, phosphorylation of a biotinylated peptide), JAK1; details: read-out: JAK1 IC50
T1 construct: human JAK1 (a.a. 837-1142); His tag (N); made in house; host or cells: insect cells (baculovirus)
T1 sequence (P23458 849-1154): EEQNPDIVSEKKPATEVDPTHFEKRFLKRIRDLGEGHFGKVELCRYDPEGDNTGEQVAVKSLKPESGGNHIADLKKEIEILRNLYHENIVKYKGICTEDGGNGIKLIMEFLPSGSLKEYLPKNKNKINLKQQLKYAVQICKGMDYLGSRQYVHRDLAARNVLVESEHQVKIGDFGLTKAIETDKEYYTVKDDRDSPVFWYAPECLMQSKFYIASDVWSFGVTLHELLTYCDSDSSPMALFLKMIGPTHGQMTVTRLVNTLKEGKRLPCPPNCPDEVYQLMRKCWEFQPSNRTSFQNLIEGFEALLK
Method in brief: (§1)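 Phosphorylation of a biotinylated peptide by the JAK kinase domain, detected by HTRF with Eu-Py20 and SA-APC. ATP was 90 μM for JAK1, 30 μM for JAK2 and 3 μM for JAK3. Reactions ran 1 h at room temperature and were stopped with EDTA, followed by 40 min antibody binding.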

[2] = biological target: T2, human JAK2 (a.a. 828-1132) (Homo sapiens, UniProt O60674); assay: In vitro JAK kinase assay (HTRF, phosphorylation of a biotinylated peptide), JAK2
T2 construct: JAK2 (a.a. 828-1132); His tag (N); made in house; host or cells: insect cells (baculovirus)
T2 sequence (O60674 828-1132): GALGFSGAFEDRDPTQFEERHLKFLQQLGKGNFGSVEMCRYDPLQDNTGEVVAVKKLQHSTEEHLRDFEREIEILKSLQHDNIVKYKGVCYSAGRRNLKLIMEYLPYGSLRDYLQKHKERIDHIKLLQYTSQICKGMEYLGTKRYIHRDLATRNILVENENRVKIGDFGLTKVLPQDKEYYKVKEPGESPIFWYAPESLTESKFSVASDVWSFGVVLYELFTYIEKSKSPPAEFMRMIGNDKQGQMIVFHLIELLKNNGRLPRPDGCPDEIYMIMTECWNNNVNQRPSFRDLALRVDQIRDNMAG
Method in brief: as §1

[3] = biological target: T3, human JAK3 (a.a. 781-1124) (Homo sapiens, UniProt P52333); assay: In vitro JAK kinase assay (HTRF, phosphorylation of a biotinylated peptide), JAK3
T3 construct: JAK3 (a.a. 781-1124); His tag (N); made in house; host or cells: insect cells (baculovirus)
T3 sequence (P52333 781-1124): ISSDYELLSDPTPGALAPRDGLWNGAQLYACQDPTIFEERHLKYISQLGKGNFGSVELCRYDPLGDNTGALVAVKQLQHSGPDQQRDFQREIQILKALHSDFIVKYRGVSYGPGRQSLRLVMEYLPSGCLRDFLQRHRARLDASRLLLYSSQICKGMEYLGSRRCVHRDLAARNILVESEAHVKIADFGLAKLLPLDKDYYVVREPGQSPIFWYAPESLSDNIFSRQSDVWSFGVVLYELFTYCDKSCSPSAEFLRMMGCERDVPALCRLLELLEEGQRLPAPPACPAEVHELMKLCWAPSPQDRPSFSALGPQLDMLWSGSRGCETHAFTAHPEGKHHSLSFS
Method in brief: as §1

TYK2 = TYK2 (Homo sapiens, UniProt P29597); assay: TYK2 kinase inhibition (Table A1)
Sequence of TYK2 (P29597 whole entry): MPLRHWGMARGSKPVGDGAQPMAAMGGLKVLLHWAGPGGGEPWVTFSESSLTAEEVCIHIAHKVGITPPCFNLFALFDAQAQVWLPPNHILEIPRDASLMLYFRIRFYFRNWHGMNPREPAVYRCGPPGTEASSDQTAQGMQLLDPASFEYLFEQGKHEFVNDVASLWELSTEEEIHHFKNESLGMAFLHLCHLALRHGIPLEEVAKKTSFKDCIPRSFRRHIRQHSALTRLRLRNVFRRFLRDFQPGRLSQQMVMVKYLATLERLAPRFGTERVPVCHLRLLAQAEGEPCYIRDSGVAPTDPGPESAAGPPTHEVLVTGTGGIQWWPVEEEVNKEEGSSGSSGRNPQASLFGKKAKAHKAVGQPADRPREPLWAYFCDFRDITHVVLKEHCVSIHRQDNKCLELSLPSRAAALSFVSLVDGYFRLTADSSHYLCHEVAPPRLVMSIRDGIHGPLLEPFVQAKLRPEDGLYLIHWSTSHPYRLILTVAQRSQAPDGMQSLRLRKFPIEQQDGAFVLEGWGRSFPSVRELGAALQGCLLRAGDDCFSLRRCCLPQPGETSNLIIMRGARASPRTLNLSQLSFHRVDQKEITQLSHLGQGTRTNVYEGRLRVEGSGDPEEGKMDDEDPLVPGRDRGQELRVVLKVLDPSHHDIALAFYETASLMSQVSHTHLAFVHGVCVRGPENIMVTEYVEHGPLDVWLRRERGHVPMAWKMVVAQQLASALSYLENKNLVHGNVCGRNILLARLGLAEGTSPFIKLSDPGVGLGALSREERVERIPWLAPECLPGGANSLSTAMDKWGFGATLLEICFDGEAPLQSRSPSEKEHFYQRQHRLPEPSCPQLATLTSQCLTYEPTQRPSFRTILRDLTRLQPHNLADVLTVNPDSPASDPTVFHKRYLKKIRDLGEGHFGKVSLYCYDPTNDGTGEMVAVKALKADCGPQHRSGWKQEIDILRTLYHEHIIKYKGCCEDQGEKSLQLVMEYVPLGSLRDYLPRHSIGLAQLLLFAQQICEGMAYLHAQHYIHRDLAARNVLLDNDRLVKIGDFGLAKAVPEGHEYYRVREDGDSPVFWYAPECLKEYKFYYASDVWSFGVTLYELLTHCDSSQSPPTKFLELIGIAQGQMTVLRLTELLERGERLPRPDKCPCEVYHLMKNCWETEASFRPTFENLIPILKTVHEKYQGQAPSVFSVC

[4] = biological target: T4, Recombinant Human Anaplastic Lymphoma Kinase (Homo sapiens, UniProt Q9UM73); assay: ALK HTRF kinase assay
T4 construct: purchased Invitrogen, Carlsbad, Calif
T4 sequence (Q9UM73 19-1620): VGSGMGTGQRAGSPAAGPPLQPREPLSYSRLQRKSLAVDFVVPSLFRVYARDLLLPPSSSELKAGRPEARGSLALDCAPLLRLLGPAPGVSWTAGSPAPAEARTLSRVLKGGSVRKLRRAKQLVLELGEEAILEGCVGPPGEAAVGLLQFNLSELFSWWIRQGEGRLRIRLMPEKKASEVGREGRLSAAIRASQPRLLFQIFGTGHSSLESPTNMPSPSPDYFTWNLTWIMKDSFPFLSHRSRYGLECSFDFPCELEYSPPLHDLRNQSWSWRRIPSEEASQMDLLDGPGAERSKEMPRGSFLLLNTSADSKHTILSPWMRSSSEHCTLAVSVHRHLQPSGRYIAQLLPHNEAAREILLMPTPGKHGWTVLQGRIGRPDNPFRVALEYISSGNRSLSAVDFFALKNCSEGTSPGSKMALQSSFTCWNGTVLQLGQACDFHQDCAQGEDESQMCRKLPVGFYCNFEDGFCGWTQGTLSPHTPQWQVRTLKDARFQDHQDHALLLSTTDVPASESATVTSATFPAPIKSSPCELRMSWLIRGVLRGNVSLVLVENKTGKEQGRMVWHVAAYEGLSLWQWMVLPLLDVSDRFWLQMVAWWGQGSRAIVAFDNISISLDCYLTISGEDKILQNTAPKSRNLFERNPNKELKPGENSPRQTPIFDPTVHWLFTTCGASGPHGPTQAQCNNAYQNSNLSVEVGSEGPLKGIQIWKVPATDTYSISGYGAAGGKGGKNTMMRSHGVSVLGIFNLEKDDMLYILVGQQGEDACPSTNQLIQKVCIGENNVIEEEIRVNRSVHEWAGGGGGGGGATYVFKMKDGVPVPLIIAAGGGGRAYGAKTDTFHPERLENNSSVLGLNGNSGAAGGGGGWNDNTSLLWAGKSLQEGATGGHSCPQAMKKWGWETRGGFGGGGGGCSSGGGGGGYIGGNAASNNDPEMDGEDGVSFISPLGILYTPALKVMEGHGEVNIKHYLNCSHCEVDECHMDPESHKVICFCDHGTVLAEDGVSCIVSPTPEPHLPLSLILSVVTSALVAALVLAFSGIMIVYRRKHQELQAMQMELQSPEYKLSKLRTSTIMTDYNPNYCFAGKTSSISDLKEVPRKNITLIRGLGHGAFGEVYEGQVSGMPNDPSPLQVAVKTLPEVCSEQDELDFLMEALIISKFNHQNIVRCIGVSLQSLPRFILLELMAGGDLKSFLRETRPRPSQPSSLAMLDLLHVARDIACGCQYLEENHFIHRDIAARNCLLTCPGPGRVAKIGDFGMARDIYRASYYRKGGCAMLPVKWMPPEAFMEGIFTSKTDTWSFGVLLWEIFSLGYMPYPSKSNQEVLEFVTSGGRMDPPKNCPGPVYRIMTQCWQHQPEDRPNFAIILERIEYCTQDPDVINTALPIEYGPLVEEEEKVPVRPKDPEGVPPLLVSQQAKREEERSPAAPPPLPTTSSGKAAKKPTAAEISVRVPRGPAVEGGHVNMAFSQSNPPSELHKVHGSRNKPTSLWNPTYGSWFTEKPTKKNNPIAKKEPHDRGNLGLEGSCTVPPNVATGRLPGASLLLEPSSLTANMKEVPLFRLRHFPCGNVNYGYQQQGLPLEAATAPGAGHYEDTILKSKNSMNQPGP
Method in brief: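 Readout was HTRF between a Eu-W1024 anti-phosphotyrosine antibody and streptavidin-APC bound to biotinylated peptide phosphorylated by recombinant human ALK. IC50 values came from a four-parameter logistic fit.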

[5] = percentage inhibition of the example compound at a concentration of 500 nM or 1 mM (not specified which)
[6] = method AA1 (90 μM ATP) or AA2 (1000 μM ATP), not stated per value
[7] = method AA1 (30 μM ATP) or AA2 (1000 μM ATP), not stated per value
[8] = method AA1 (3 μM ATP) or AA2 (1000 μM ATP), not stated per value
[9] = compound at 500 nM or 1 mM, 90 μM ATP
[10] = Table B1, cells without percent sign
[11] = compound at a concentration of 500 nM or 1 mM (not specified), cells shown as percentage

SMILES: Cc1cc(N2CCC(CC(=O)Nc3ccc4cc3CCc3cncc(c3)Nc3ncc(Cl)c(n3)N4)CC2)no1 [Example A247, N-[6-Chloro-2,4,8,18,22-pentaazatetracyclo[14.3.1.1(3,7).1(9,13)]docosa-1(20),3(22),4,6,9(21),10,12,16,18-nonaen-12-yl]-2-[1-(5-methylisoxazol-3-yl)piperidin-4-yl]acetamide bis(trifluoroacetate)]
IC50 [1, 6]: 0.0069 µM
IC50 [2, 7]: 0.072 µM
IC50 [3, 8]: > 0.2 µM
IC50 (TYK2): 0.084 µM
ALK % of inhibition at a concentration of 500 nM or 1 mM [4, 9]: 35%

SMILES: CN1CCN(C(=O)c2cc3cc(c2)Nc2nc(ncc2Cl)Nc2cccc(c2)CC3)CC1 [Example B8, 6-Chloro-11-[(4-methylpiperazin-1-yl)carbonyl]-2,4,8,22-tetraazatetracyclo[14.3.1.1(3,7).1(9,13)]docosa-1(20),3(22),4,6,9(21),10,12,16,18-nonaene trifluoroacetate]
IC50 ([1]; Table B1): 0.5 µM
IC50 ([2]; Table B1): 0.35 µM
IC50 ([3]; Table B1): > 1 µM
IC50 (TYK2; Table B1): > 1 µM
IC50 [4, 10]: > 1 µM

SMILES: O=C(CC1CCNCC1)Nc1ccc2cc1CCc1cccc(c1)Nc1ncc(Cl)c(n1)N2 [Example A46, N-[6-Chloro-2,4,8,22-tetraazatetracyclo[14.3.1.1(3,7).1(9,13)]docosa-1(20), 3(22),4,6,9(21),10,12,16,18-nonaen-12-yl]-2-piperidin-4-ylacetamide bis(trifluoroacetate)]
IC50 [1, 6]: 0.01 µM
IC50 [2, 7]: 0.016 µM
IC50 [3, 8]: 0.049 µM
IC50 (TYK2): 0.042 µM
ALK % of inhibition at a concentration of 500 nM or 1 mM [4, 9]: 20%

SMILES: CC(C)S(=O)(=O)c1ccc2cc1Nc1nc(ncc1Cl)Nc1cccc(c1)CC2 [Example A8, 6-Chloro-10-(isopropylsulfonyl)-2,4,8,22-tetraazatetracyclo[14.3.1.1(3,7).1(9,13)]docosa-1(20),3(22),4,6,9(21),10,12,16,18-nonaene trifluoroacetate]
IC50 [1, 6]: 0.051 µM
IC50 [2, 7]: 0.052 µM
IC50 [3, 8]: 0.02 µM
IC50 (TYK2): 0.08 µM
IC50 ([4]; 90 μM ATP): 0.08 µM

SMILES: Cn1ccc(C(=O)Nc2ccc3cc2CCc2cccc(c2)Nc2ncc(Cl)c(n2)N3)n1 [Example B31, N-[6-Chloro-2,4,8,22-tetraazatetracyclo[14.3.1.1(3,7).1(9,13)]docosa-1(20), 3(22),4,6,9(21),10,12,16,18-nonaen-12-yl]-1-methyl-1H-pyrazole-3-carboxamide trifluoroacetate]
IC50 ([1]; Table B1): 0.0054 µM
IC50 ([2]; Table B1): 0.0037 µM
IC50 ([3]; Table B1): 0.069 µM
IC50 (TYK2; Table B1): 0.01 µM
IC50 [4, 10]: > 10 µM

SMILES: O=C(Nc1ccc2cc1CCc1cccc(c1)Nc1ncc(Cl)c(n1)N2)c1ccccc1Cl [Example B41, 2-Chloro-N-[6-chloro-2,4,8,22-tetraazatetracyclo[14.3.1.1(3,7).1(9,13)]docosa-1(20),3(22),4,6,9(21),10,12,16,18-nonaen-12-yl]benzamide hydrochloride]
IC50 ([1]; Table B1): 0.0017 µM
IC50 ([2]; Table B1): 0.00063 µM
IC50 ([3]; Table B1): 0.0065 µM
IC50 (TYK2; Table B1): 0.0023 µM
IC50 [4, 10]: 0.14 µM

SMILES: N#Cc1cccc(C(=O)N2CCC(CC(=O)Nc3ccc4cc3CCc3cccc(c3)Nc3ncc(Cl)c(n3)N4)CC2)c1 [Example A187, N-[6-Chloro-2,4,8,22-tetraazatetracyclo[14.3.1.1(3,7).1(9,13)]docosa-1(20),3(22),4,6,9(21),10,12,16,18-nonaen-12-yl]-2-[1-(3-cyanobenzoyl)piperidin-4-yl]acetamide trifluoroacetate]
IC50 [1, 6]: 0.052 µM
IC50 [2, 7]: 0.132 µM
IC50 [3, 8]: > 0.2 µM
IC50 (TYK2): > 0.2 µM
ALK % of inhibition at a concentration of 500 nM or 1 mM [4, 9]: 37%

SMILES: O=C(Cc1ccccc1)Nc1ccc2cc1CCc1cccc(c1)Nc1ncc(Cl)c(n1)N2 [Example B32, N-[6-Chloro-2,4,8,22-tetraazatetracyclo[14.3.1.1(3,7).1(9,13)]docosa-1(20), 3(22),4,6,9(21),10,12,16,18-nonaen-12-yl]-2-phenylacetamide trifluoroacetate]
IC50 ([1]; Table B1): 0.0028 µM
IC50 ([2]; Table B1): 0.0016 µM
IC50 ([3]; Table B1): 0.0055 µM
IC50 (TYK2; Table B1): 0.0027 µM
IC50 [4, 10]: 0.94 µM

Continued, values first:

IC50 [1]: 0.081 µM
IC50 [2]: 0.037 µM
IC50 [3]: 0.115 µM
IC50 (TYK2): 0.091 µM
IC50 [4]: 6.6 µM
SMILES: O=S1(=O)NCc2cccc(c2)Nc2nc(ncc2Cl)Nc2cccc1c2 [Example C3, 6-Chloro-16-thia-2,4,8,15,23-pentaazatetracyclo[15.3.1.1(3,7).1(9,13)]tricosa-1(21),3(23),4,6,9(22),10,12,17,19-nonaene 16,16-dioxide]

IC50 ([1]; Table B1): 0.021 µM
IC50 ([2]; Table B1): 0.133 µM
IC50 ([3]; Table B1): > 0.4 µM
IC50 (TYK2; Table B1): 0.067 µM
ALK % of inhibition at a concentration of 500 nM or 1 mM [4, 5]: 68%
SMILES: O=C(Nc1ccc2cc1CCc1cncc(c1)Nc1ncc(Cl)c(n1)N2)N1CCN(c2ncccn2)CC1 [Example B309, N-[6-Chloro-2,4,8,18,22-pentaazatetracyclo[14.3.1.1(3,7).1(9,13)]docosa-1(20),3(22),4,6,9(21),10,12,16,18-nonaen-12-yl]-4-pyrimidin-2-ylpiperazine-1-carboxamide tris(trifluoroacetate)]

IC50 ([1]; Table B1): 0.012 µM
IC50 ([2]; Table B1): 0.014 µM
IC50 ([3]; Table B1): 0.0021 µM
IC50 (TYK2; Table B1): 0.00089 µM
ALK % of inhibition at a concentration of 500 nM or 1 mM [4, 5]: 20%
SMILES: N#CNC(=O)Nc1ccc2cc1CCc1cccc(c1)Nc1ncc(Cl)c(n1)N2 [Example B323, N-[6-chloro-2,4,8,22-tetraazatetracyclo[14.3.1.1(3,7).1(9,13)]docosa-1(20),3(22),4,6,9(21),10,12,16,18-nonaen-12-yl]-N′-cyanourea trifluoroacetate]

IC50 ([1]; Table D1): 0.0081 µM
IC50 ([2]; Table D1): 0.013 µM
IC50 ([3]; Table D1): 0.045 µM
IC50 (TYK2; Table D1): 0.027 µM
IC50 ([4]; Table D1, 90 μM ATP): 0.984 µM
SMILES: Clc1cnc2nc1Nc1cccc(c1)COCc1cccc(c1)N2 [Example D21, 6-Chloro-15-oxa-2,4,8,23-tetraazatetracyclo[15.3.1.1(3,7).1(9,13)]tricosa-1(21),3(23),4,6,9(22),10,12,17,19-nonaene trifluoroacetate]

IC50 ([1]; Table D1): 0.041 µM
IC50 ([2]; Table D1): 0.032 µM
IC50 ([3]; Table D1): 0.088 µM
IC50 (TYK2; Table D1): 0.102 µM
IC50 ([4]; Table D1, 90 μM ATP): 0.598 µM
SMILES: Clc1cnc2nc1Nc1cccc(c1)CSCc1cccc(c1)N2 [Example D20, 6-Chloro-15-thia-2,4,8,23-tetraazatetracyclo[15.3.1.1(3,7).1(9,13)]tricosa-1(21),3(23),4,6,9(22),10,12,17,19-nonaene trifluoroacetate]

IC50 ([1]; Table B1): 0.015 µM
IC50 ([2]; Table B1): 0.09 µM
IC50 ([3]; Table B1): > 0.2 µM
IC50 (TYK2; Table B1): > 0.2 µM
ALK % of inhibition at a concentration of 500 nM or 1 mM [4, 11]: 46%
SMILES: O=C(Nc1ccc2cc1CCc1cncc(c1)Nc1ncc(Cl)c(n1)N2)N1CCN(Cc2ccccc2)CC1 [Example B287, 4-Benzyl-N-[6-chloro-2,4,8,18,22-pentaazatetracyclo[14.3.1.1(3,7).1(9,13)]docosa-1(20),3(22),4,6,9(21),10,12,16,18-nonaen-12-yl]piperazine-1-carboxamidetris(trifluoroacetate)]

IC50 ([1]; Table B1): 0.002 µM
IC50 ([2]; Table B1): 0.007 µM
IC50 ([3]; Table B1): 0.05 µM
IC50 (TYK2; Table B1): 0.015 µM
ALK % of inhibition at a concentration of 500 nM or 1 mM [4, 11]: 11%
SMILES: O=C(Nc1ccc2cc1CCc1cccc(c1)Nc1ncc(Cl)c(n1)N2)N[C@H]1CCN(C(=O)c2ccno2)C1 [Example B230, N-[6-Chloro-2,4,8,22-tetraazatetracyclo[14.3.1.1(3,7).1(9,13)]docosa-1(20),3(22),4,6,9(21),10,12,16,18-nonaen-12-yl]-N′-[(3S)-1-(isoxazol-5-ylcarbonyl)pyrrolidin-3-yl]urea trifluoroacetate]

IC50 ([1]; Table B1): 0.0033 µM
IC50 ([2]; Table B1): 0.012 µM
IC50 ([3]; Table B1): 0.047 µM
IC50 (TYK2; Table B1): 0.026 µM
ALK % of inhibition at a concentration of 500 nM or 1 mM [4, 11]: 17%
SMILES: CNC(=O)N1CC[C@H](NC(=O)Nc2ccc3cc2CCc2cccc(c2)Nc2ncc(Cl)c(n2)N3)C1 [Example B169, (3S)-3-[({[6-Chloro-2,4,8,22-tetraazatetracyclo[14.3.1.1(3,7).1(9,13)]docosa-1(20),3(22),4,6,9(21),10,12,16,18-nonaen-12-yl]amino}carbonyl)amino]-N-methylpyrrolidine-1-carboxamide Trifluoracetate]

IC50 ([1]; Table B1): 0.0096 µM
IC50 ([2]; Table B1): 0.056 µM
IC50 ([3]; Table B1): 0.261 µM
IC50 (TYK2; Table B1): 0.072 µM
ALK % of inhibition at a concentration of 500 nM or 1 mM [4, 11]: 0%
SMILES: O=C(Nc1ccc2cc1CCc1cccc(c1)Nc1ncc(Cl)c(n1)N2)Nc1cccc2c1CCCC2 [Example B109, N-[6-Chloro-2,4,8,22-tetraazatetracyclo[14.3.1.1(3,7).1(9,13)]docosa-1(20),3(22),4,6,9(21),10,12,16,18-nonaen-12-yl]-N′-(5,6,7,8-tetrahydronaphthalen-1-yl)urea trifluoroacetate]
